Laboratory results: ChEMBL document CHEMBL5442175, “EUbOPEN Chemogenomics Library - PDSP Secondary Binding” (2024)
Counter-ions that a name gives are not always drawn.

What was measured:
[1] = biological target: D(3) dopamine receptor (Homo sapiens, UniProt P35462); experiment: (§1) PDSP Secondary Binding target: DRD3 - Compounds are tested at 10 uM concentration, plate are incubated at room temperature in the dark for 90 minutes. Reaction are stopped by vacuum filtration onto 0.3% polyethyleneimine soaked filter mats using Filtermate harvester. Scintillation cocktail is then melted onto microwave-dried filters on a hot plate and the radio activity is counted in Microbia counter.
Sequence of D(3) dopamine receptor (P35462 whole entry): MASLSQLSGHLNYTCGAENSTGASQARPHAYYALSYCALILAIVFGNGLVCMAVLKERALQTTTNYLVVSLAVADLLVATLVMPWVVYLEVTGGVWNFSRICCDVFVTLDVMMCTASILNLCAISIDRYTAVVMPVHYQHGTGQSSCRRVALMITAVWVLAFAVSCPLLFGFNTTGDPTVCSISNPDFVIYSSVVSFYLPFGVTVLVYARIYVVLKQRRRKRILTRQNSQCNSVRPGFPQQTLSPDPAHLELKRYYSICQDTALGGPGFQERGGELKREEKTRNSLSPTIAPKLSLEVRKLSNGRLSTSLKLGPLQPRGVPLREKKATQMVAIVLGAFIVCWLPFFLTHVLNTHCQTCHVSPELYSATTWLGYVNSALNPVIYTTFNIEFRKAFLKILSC

[2] = biological target: Histamine H1 receptor (Homo sapiens, UniProt P35367); experiment: as §1, with “HRH1” for “DRD3”
Sequence of Histamine H1 receptor (P35367 whole entry): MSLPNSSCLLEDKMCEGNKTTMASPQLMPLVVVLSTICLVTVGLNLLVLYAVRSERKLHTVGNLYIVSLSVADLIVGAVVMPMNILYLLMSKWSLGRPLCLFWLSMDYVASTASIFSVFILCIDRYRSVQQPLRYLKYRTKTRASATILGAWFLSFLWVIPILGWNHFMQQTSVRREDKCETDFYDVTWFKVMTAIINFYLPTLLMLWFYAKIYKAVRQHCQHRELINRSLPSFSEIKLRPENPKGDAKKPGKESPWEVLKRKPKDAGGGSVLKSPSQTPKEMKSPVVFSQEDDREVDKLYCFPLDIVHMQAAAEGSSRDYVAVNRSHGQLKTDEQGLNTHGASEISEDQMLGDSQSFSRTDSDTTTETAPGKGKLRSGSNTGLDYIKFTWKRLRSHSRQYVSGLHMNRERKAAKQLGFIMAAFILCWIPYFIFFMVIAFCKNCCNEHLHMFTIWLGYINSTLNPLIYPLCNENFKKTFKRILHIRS

[3] = biological target: 5-hydroxytryptamine receptor 2B (Homo sapiens, UniProt P41595); experiment: as §1, with “HTR2B” for “DRD3”
Sequence of 5-hydroxytryptamine receptor 2B (P41595 whole entry): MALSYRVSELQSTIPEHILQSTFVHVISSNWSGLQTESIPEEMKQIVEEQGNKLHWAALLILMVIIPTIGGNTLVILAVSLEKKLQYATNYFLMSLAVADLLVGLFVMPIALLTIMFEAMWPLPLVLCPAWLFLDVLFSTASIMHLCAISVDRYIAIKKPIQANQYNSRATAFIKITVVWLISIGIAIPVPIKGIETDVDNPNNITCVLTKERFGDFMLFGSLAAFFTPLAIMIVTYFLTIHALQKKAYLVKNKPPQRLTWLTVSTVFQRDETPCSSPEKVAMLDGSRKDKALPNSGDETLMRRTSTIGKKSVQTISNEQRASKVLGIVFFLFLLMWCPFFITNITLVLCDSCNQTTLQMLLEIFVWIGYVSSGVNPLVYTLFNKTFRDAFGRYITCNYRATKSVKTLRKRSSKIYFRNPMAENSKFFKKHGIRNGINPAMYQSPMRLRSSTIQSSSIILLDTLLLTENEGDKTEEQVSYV

[4] = biological target: T1, Alpha-2C adrenergic receptor (Homo sapiens, UniProt P18825); experiment: as §1, with “ADRA2C” for “DRD3”
T1 sequence (P18825 whole entry): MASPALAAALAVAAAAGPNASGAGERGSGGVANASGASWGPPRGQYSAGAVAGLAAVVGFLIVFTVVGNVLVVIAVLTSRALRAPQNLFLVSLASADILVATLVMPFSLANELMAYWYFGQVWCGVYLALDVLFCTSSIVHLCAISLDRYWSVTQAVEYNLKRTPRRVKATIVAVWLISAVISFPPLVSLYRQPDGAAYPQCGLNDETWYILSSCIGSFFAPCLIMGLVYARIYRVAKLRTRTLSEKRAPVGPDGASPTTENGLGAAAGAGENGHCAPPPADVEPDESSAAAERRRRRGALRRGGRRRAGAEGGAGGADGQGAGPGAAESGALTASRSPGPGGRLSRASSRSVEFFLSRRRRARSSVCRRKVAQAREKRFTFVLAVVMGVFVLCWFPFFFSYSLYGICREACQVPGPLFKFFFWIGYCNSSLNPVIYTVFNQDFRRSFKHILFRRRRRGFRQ

[5] = biological target: 5-hydroxytryptamine receptor 5A (Homo sapiens, UniProt P47898); experiment: as §1, with “HTR5A” for “DRD3”
Sequence of 5-hydroxytryptamine receptor 5A (P47898 whole entry): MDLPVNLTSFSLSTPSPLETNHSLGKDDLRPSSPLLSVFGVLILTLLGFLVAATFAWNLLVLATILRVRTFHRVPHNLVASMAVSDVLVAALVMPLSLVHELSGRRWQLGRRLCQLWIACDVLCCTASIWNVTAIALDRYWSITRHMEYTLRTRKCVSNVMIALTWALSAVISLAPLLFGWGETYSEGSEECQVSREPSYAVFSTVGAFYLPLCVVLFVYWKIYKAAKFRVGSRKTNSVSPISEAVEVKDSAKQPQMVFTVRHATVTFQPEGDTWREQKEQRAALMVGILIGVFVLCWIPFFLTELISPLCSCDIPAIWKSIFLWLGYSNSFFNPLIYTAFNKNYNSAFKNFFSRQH

[6] = biological target: T2, 5-hydroxytryptamine receptor 2C (Homo sapiens, UniProt P28335); experiment: as §1, with “HTR2C” for “DRD3”
T2 sequence (P28335 whole entry): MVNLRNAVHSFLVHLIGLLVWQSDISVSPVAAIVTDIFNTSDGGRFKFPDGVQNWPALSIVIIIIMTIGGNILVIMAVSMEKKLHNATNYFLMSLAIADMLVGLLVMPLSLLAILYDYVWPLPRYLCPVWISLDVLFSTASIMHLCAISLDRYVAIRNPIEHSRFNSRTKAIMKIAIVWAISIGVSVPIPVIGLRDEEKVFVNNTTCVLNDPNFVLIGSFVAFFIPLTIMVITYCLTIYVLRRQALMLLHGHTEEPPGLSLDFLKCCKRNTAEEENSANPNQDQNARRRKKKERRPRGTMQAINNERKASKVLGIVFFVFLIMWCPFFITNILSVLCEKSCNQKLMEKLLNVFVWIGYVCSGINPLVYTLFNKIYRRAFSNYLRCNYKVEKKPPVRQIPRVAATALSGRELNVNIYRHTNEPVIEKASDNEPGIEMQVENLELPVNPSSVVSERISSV

[7] = biological target: Sigma non-opioid intracellular receptor 1 (Homo sapiens, UniProt Q99720); experiment: as §1, with “SIGMAR1” for “DRD3”
Sequence of Sigma non-opioid intracellular receptor 1 (Q99720 whole entry): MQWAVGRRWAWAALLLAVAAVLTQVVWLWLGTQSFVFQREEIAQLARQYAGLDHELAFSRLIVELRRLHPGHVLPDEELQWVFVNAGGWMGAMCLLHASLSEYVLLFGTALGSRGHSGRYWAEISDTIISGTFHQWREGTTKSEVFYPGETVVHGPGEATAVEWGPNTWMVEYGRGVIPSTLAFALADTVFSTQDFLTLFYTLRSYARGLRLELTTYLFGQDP

[8] = biological target: 5-hydroxytryptamine receptor 2A (Homo sapiens, UniProt P28223); experiment: as §1, with “HTR2A” for “DRD3”
Sequence of 5-hydroxytryptamine receptor 2A (P28223 whole entry): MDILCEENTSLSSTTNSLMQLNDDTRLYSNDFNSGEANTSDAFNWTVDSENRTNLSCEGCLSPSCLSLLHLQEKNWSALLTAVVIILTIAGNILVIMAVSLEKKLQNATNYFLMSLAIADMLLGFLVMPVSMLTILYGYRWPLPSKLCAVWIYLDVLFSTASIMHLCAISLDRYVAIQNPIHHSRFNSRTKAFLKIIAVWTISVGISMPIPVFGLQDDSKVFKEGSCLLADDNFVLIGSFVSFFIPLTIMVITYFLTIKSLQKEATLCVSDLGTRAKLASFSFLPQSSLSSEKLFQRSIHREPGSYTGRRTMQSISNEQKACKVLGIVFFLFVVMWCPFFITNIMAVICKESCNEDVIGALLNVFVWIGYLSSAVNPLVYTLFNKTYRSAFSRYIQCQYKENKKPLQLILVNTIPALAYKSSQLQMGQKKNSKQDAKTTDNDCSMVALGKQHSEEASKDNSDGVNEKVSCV

[9] = biological target: Kappa-type opioid receptor (Homo sapiens, UniProt P41145); experiment: as §1, with “OPRK1” for “DRD3”
Sequence of Kappa-type opioid receptor (P41145 whole entry): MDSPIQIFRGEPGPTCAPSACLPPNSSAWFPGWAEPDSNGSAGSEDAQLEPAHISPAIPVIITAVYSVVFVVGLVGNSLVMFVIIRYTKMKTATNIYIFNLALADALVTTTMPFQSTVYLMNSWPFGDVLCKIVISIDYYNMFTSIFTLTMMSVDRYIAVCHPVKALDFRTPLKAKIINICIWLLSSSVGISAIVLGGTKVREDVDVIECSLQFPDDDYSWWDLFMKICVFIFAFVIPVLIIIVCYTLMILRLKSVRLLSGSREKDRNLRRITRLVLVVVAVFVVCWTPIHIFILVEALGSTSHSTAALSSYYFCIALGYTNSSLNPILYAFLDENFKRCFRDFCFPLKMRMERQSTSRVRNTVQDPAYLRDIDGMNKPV

[10] = biological target: 5-hydroxytryptamine receptor 7 (Homo sapiens, UniProt P34969); experiment: as §1, with “HTR7” for “DRD3”
[11] = biological target: Translocator protein (Homo sapiens, UniProt P30536); experiment: as §1, with “TSPO” for “DRD3”
Sequence of Translocator protein (P30536 whole entry): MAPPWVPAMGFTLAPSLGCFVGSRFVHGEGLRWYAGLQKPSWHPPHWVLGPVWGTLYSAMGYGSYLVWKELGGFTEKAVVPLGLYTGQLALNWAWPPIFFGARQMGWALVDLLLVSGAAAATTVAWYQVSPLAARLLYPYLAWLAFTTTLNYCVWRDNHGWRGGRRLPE

[12] = biological target: T3, D(4) dopamine receptor (Homo sapiens, UniProt P21917); experiment: as §1, with “DRD4” for “DRD3”
T3 sequence (P21917 whole entry): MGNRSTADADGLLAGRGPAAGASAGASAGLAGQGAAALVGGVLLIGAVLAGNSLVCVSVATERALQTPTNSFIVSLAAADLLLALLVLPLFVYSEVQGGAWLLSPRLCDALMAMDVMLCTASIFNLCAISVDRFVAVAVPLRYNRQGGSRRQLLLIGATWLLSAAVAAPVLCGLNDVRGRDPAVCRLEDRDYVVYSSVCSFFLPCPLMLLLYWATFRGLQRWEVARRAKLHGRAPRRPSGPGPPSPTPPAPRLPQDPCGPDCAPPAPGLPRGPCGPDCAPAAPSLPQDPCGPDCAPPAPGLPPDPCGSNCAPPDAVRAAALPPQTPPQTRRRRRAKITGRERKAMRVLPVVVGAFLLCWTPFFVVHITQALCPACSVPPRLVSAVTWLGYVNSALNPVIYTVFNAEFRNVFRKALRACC

[13] = biological target: Mu-type opioid receptor (Homo sapiens, UniProt P35372); experiment: as §1, with “OPRM1” for “DRD3”
Sequence of Mu-type opioid receptor (P35372 whole entry): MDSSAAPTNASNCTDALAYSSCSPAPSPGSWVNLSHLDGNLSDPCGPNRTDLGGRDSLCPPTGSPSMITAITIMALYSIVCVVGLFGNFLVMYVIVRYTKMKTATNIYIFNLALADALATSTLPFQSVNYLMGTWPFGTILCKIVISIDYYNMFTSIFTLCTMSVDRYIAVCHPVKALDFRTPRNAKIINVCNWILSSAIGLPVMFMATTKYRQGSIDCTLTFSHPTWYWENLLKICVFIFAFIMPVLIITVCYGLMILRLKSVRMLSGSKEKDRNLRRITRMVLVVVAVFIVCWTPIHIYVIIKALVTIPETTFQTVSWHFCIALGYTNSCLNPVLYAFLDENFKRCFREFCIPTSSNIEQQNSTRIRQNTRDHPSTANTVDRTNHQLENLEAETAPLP

[14] = biological target: Sodium-dependent dopamine transporter (Homo sapiens, UniProt Q01959); experiment: as §1, with “SLC6A3” for “DRD3”
Sequence of Sodium-dependent dopamine transporter (Q01959 whole entry): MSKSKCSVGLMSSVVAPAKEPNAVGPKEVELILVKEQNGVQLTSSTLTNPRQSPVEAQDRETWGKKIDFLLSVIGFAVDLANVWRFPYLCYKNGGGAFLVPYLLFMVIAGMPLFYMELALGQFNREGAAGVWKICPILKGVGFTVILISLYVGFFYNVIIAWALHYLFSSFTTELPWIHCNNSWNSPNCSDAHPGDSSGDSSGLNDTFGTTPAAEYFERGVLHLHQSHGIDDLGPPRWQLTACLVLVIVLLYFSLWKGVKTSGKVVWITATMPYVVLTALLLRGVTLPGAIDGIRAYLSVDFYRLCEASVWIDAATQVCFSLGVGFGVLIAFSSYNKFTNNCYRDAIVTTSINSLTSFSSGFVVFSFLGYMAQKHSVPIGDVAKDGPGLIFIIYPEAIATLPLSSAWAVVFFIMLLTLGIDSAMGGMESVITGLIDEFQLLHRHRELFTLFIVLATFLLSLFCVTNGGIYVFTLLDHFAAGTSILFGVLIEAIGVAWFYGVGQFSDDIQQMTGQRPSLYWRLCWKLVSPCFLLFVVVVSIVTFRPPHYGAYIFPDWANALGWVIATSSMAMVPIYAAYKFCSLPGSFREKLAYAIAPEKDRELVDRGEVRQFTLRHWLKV

[15] = biological target: T4, Muscarinic acetylcholine receptor M5 (Homo sapiens, UniProt P08912); experiment: as §1, with “CHRM5” for “DRD3”
T4 sequence (P08912 whole entry): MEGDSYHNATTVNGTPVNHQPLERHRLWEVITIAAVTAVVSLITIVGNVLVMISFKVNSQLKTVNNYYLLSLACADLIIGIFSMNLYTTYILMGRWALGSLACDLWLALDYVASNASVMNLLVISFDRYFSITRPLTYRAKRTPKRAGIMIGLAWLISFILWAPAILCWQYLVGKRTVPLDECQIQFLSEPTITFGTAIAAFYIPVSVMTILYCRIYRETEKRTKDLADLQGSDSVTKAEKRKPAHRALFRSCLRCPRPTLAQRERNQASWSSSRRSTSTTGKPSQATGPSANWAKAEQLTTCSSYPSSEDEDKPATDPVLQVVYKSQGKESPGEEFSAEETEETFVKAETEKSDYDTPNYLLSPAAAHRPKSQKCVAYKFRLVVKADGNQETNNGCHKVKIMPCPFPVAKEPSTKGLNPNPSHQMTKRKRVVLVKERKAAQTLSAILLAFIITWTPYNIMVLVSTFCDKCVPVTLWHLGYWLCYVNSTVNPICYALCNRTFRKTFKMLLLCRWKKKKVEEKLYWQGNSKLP

[16] = biological target: T5, Alpha-2B adrenergic receptor (Homo sapiens, UniProt P18089); experiment: as §1, with “ADRA2B” for “DRD3”
T5 sequence (P18089 whole entry): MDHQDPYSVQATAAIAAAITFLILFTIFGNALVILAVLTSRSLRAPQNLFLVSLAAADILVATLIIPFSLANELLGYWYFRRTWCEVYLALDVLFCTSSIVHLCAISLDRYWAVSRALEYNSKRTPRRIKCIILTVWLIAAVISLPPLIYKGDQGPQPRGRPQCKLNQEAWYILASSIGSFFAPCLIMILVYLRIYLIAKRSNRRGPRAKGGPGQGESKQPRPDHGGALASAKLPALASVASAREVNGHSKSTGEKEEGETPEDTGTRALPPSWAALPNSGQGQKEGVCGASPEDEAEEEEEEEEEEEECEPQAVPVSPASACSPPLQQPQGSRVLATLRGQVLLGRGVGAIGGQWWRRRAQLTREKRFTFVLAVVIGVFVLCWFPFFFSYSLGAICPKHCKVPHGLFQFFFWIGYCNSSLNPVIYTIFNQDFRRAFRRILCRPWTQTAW

[17] = biological target: Sigma intracellular receptor 2 (Homo sapiens, UniProt Q5BJF2); experiment: as §1, with “TMEM97” for “DRD3”
Sequence of Sigma intracellular receptor 2 (Q5BJF2 whole entry): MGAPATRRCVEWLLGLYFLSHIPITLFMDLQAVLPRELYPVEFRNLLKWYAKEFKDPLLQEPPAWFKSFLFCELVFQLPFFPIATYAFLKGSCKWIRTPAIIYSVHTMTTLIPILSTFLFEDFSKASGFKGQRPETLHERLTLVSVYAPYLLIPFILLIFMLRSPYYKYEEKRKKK

[18] = biological target: T6, Alpha-1B adrenergic receptor (Homo sapiens, UniProt P35368); experiment: as §1, with “ADRA1B” for “DRD3”
T6 sequence (P35368 whole entry): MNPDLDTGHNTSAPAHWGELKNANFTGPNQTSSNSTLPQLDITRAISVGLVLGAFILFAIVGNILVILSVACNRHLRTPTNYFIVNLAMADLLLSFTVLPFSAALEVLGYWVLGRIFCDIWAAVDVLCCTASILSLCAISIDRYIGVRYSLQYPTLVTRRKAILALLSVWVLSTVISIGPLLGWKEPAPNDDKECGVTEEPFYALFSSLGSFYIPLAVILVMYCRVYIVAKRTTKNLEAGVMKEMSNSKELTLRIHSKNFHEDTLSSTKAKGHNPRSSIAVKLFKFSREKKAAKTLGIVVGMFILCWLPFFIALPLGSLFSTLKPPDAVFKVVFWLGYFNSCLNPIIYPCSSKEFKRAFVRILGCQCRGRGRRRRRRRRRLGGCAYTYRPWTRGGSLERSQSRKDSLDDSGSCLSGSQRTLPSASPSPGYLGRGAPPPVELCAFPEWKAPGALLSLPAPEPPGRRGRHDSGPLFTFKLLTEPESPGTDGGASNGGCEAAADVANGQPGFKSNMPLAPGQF

[19] = biological target: 5-hydroxytryptamine receptor 1D (Homo sapiens, UniProt P28221); experiment: as §1, with “HTR1D” for “DRD3”
Sequence of 5-hydroxytryptamine receptor 1D (P28221 whole entry): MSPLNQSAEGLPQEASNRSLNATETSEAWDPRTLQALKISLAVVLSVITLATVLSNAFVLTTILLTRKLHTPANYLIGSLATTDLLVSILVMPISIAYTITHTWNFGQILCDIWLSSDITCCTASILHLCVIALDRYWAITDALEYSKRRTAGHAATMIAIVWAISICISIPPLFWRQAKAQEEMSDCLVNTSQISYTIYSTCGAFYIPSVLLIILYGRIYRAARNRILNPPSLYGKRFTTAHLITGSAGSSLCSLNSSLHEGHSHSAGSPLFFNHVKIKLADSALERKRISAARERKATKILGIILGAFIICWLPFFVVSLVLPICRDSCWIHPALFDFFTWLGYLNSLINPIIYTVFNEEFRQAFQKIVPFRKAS

CSc1ccc(C(=O)N[C@@H]2CCCC[C@@H]2NC(=O)CNC(=O)c2cc(C(F)(F)F)ccc2NC(=O)NC(C)C)cc1
Ki [1]: 1190 nM | Ki [2]: 1610 nM

CNc1nc(NCc2ccc(NS(C)(=O)=O)cc2Cl)cc(-c2ccccn2)n1
Ki [3]: 647 nM | Ki [1]: 1020 nM | Ki [4]: 1720 nM | Ki [5]: 2110 nM | Ki [6]: 2220 nM | Ki [7]: 365 nM | Ki [8]: 2120 nM | Ki [9]: 998 nM | Ki [10]: 803 nM | Ki [11]: 1660 nM

CCc1cc2c(c(CC)n1)CCC(=O)N2Cc1ccc(-c2ccccc2-c2nnn[nH]2)cc1
Ki [1]: 270 nM | Ki [12]: 545 nM | Ki [13]: 6270 nM

C/C(=N\NC(=O)[C@@H]1C(=O)NC[C@H]1c1ccccc1)c1cccc(Br)c1
Ki [2]: 1980 nM | Ki [13]: > 10000 nM | Ki [8]: 3880 nM

O=C(O)C1CN(Cc2ccc(OCc3ccc(Cl)c(Cl)c3)cc2)C1
Ki [2]: > 10000 nM | Ki [7]: 488 nM | Ki [8]: 4610 nM

CCCCN(CCCC)C(=O)CN1C[C@@H](c2ccc3c(c2)OCO3)[C@H](C(=O)O)[C@H]1c1ccc(OC)cc1
Ki [12]: 1910 nM | Ki [7]: 2810 nM | Ki [11]: 184 nM

c1ccc(N2CCN(Cc3nc4ccccc4[nH]3)CC2)nc1
Ki [12]: 199 nM | Ki [7]: 2260 nM | Ki [9]: 2120 nM

C[C@H](NC[C@H](O)CP(=O)(O)CC1CCCCC1)c1ccc(Cl)c(Cl)c1
Ki [13]: 1280 nM | Ki [9]: 1110 nM | Ki [14]: 520 nM

O=C1N/C(=N/c2ccccc2F)S/C1=C\c1ccc(C(=O)O)cc1
Ki [15]: 5230 nM | Ki [12]: > 10000 nM | Ki [13]: > 10000 nM

Cc1nnn(-c2ccc(-c3ccc(C4(C(=O)O)CC4)cc3)cc2)c1NC(=O)O[C@H](C)c1ccccc1
Ki [15]: > 10000 nM | Ki [2]: 5550 nM

COc1cccc(-c2c(C)n(Cc3c(F)cccc3C(F)(F)F)c(=O)n(C[C@H](NCCCC(=O)O)c3ccccc3)c2=O)c1F [ELAGOLIX SODIUM]
Ki [9]: 2380 nM

NC[C@H](O)c1ccc(O)c(O)c1
Ki [4]: 386 nM | Ki [16]: 235 nM

O=C(Cc1ccc(Cl)c(Cl)c1)N1CCCC[C@H]1CN1CCCC1
Ki [12]: 2030 nM | Ki [7]: 11.7 nM | Ki [9]: 0.591 nM | Ki [17]: 37 nM | Ki [14]: 4860 nM

Cc1ccccc1N1CCN(S(=O)(=O)C[C@]23CC[C@H](C[C@@H]2NC(=O)[C@@H](N)CCS(C)(=O)=O)C3(C)C)CC1
Ki [7]: 70.1 nM | Ki [9]: 4.03 nM | Ki [17]: 309 nM

CN(C)C(=O)C(CCN1CCC(O)(c2ccc(Cl)cc2)CC1)(c1ccccc1)c1ccccc1 [LOPERAMIDE HYDROCHLORIDE]
Ki [3]: 362 nM | Ki [12]: 1460 nM | Ki [18]: 3690 nM | Ki [7]: 169 nM | Ki [19]: 2600 nM | Ki [17]: 36.7 nM | Ki [14]: 1410 nM
